This note sets out measurements from the NIST ThermoML archive (doi:10.1021/je700646e).

A short description of the series: xn = mol fraction of the nth substance listed. To be noted: Fluid (supercritical or subcritical phases), Taylor dispersion method, x1 = 0.

With `C=CCc1ccc(O)c(OC)c1` [2-hydroxy-5-allylanisole] + O=C=O, the binary diffusion coefficient is 9.29e-09 m2/s (313.16 K, 15000 kPa); 7.69e-09 m2/s (313.16 K, 20000 kPa); 6.96e-09 m2/s (313.16 K, 25000 kPa); 6.37e-09 m2/s (313.16 K, 30000 kPa); 6.1e-09 m2/s (313.16 K, 35000 kPa); 1.14e-08 m2/s (323.16 K, 15000 kPa). The binary diffusion coefficient is, setting by setting: (323.16 K, 20000 kPa) 9.08e-09 m2/s; (323.16 K, 25000 kPa) 8.03e-09 m2/s; (323.16 K, 30000 kPa) 7.39e-09 m2/s; (323.16 K, 35000 kPa) 6.91e-09 m2/s; (333.16 K, 15000 kPa) 1.21e-08 m2/s; (333.16 K, 20000 kPa) 1.04e-08 m2/s. Also, the binary diffusion coefficient runs as follows: (333.16 K, 25000 kPa) 9.19e-09 m2/s; (333.16 K, 30000 kPa) 8.32e-09 m2/s; (333.16 K, 35000 kPa) 7.9e-09 m2/s.

With `CCOC(=O)c1ccccc1` [ethyl benzoate] + O=C=O, the binary diffusion coefficient by setting is: (313.16 K, 15000 kPa) 1.05e-08 m2/s; (313.16 K, 20000 kPa) 8.06e-09 m2/s; (313.16 K, 25000 kPa) 7.53e-09 m2/s; (313.16 K, 30000 kPa) 6.82e-09 m2/s; (313.16 K, 35000 kPa) 6.7e-09 m2/s; (323.16 K, 15000 kPa) 1.3e-08 m2/s. Also, the binary diffusion coefficient (323.16 K, 20000 kPa) stood at 1.01e-08 m2/s; the binary diffusion coefficient (323.16 K, 25000 kPa) was 8.65e-09 m2/s; the binary diffusion coefficient (323.16 K, 30000 kPa) was found to be 7.82e-09 m2/s; the binary diffusion coefficient (323.16 K, 35000 kPa) was 7.25e-09 m2/s; the binary diffusion coefficient (333.16 K, 15000 kPa) is 1.49e-08 m2/s; the binary diffusion coefficient (333.16 K, 20000 kPa) is 1.19e-08 m2/s. The binary diffusion coefficient runs as follows: (333.16 K, 25000 kPa) 9.82e-09 m2/s; (333.16 K, 30000 kPa) 8.78e-09 m2/s; (333.16 K, 35000 kPa) 8.36e-09 m2/s.

As for `CC(=O)CCc1ccccc1` [4-phenyl-2-butanone] + O=C=O, the binary diffusion coefficient was 8.97e-09 m2/s (313.16 K, 15000 kPa); 8.05e-09 m2/s (313.16 K, 20000 kPa); 7.39e-09 m2/s (313.16 K, 25000 kPa); 6.95e-09 m2/s (313.16 K, 30000 kPa); 6.58e-09 m2/s (313.16 K, 35000 kPa); 1.06e-08 m2/s (323.16 K, 15000 kPa). The binary diffusion coefficient runs as follows: (323.16 K, 20000 kPa) 9.25e-09 m2/s; (323.16 K, 25000 kPa) 8.65e-09 m2/s; (323.16 K, 30000 kPa) 7.83e-09 m2/s; (323.16 K, 35000 kPa) 7.5e-09 m2/s; (333.16 K, 15000 kPa) 1.15e-08 m2/s; (333.16 K, 20000 kPa) 1.08e-08 m2/s. The binary diffusion coefficient is 9.59e-09 m2/s (333.16 K, 25000 kPa); 8.92e-09 m2/s (333.16 K, 30000 kPa); 8.29e-09 m2/s (333.16 K, 35000 kPa).
